What was measured:
human GnRHR1 = target: T1, human GnRHR1 (Homo sapiens, UniProt P30968); test: Inhibitory effect for the change of calcium levels in GnRH-stimulated cells (hGnRHR1#1 HEK293 cells); type: cell-based; settings: hGnRHR1#1 cells (HEK293 stably expressing human GnRHR1), 10 nM GnRH added, FLIPR calcium dye; read-out: IC50 (drug concentration at which 50% GnRH-stimulated intracellular calcium flux was inhibited)
T1 construct: expressed in transfected cells
T1 sequence (P30968 1-328): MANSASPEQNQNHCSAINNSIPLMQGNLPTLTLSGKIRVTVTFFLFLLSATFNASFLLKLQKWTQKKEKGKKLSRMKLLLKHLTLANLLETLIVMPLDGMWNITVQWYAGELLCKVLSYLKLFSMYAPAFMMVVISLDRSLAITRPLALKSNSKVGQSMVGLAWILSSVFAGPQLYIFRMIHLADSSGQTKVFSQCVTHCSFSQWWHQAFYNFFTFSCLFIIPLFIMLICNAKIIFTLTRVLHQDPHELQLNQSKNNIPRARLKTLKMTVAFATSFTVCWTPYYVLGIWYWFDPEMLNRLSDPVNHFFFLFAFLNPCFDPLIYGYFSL
Text: 1) Cloning and Construction of the Vector Expressing Human GnRH Receptor1 (GnRHR1)
Using cDNA derived from human pituitary (BECTON DICKINSON) as a template, the DNA fragment coding 45 to 1115 by of human GnRHR1 (Accession No. L03380), which was reported by Kakar et al., was amplified by PCR method and inserted into the multi-cloning site of pcDNA3.1(+) (Invitrogen). The DNA sequence inserted was perfectly matched to the previously reported sequence.
2) Establishment of Cell Line Stably Expressing Human GnRH Receptor1 HEK293 Cells
The expression vector of human GnRHR1 gene, was digested by XhoI into a linear DNA. The linear DNA was transfected into HEK293 cells by means of lipofection (Lipofectamine2000: Invitrogen). Neomycin resistant cell lines were selected by culture in the medium containing G418 (Invitrogen) at 1 mg/mL, and then the change of calcium levels in GnRH-stimulated cells was measured by the method described below.
3) Assay of Inhibitory Effect for the Change of Calcium Levels in GnRH-Stimulated Cells
Antagonizing effect of compounds for human GnRHR1 was evaluated by depression of calcium levels in GnRH-stimulated cells. hGnRHR1#1 cells were seeded into a 96-well culture plate at a density of 1.5×10^5 cells/well and cultured for a day. […] Then, intracellular calcium levels were determined under the following condition by using FLEX STATION (Molecular Devices). […]

[1] = Assay for oral absorbability: plasma drug concentration after oral administration to rats; type: in vivo, SD rats; settings: for C360 (plasma drug concentration at 360 minutes after administration) / Cmax: fasted male SD rats, oral 3 mg/kg, plasma; for availability by oral administration compared with Control compound 1 / sustainability of blood concentration 6 hours after oral administration compared with Control compound / Cmax: rat; for Cmax: LC-MS/MS, read-out: Cmax (maximum plasma drug concentration)
Description: Assay for Oral Absorbability
1) Preparation of the Samples for Measurement of the Drug Concentration after Oral Administration
As experimental animal, overnight fasted SD rats (Charles River, male, 7 weeks of age, 170-210 g) were used. Three mg of a test compound was dissolved by adding 0.2 mL of N,N-dimethylacetoamide, 9.794 mL of 0.5% aqueous methylcellulose solution and 0.006 mL of 2N NaOH, and then 0.3 mg/mL solution was prepared. The body weights of rats were measured, and the solution of the test compound was administered orally at the dose of 10 mL/kg (3 mg/kg). The oral administration was performed with gastric tube for rat and 2.5 mL syringe. The sampling times for collection of blood were 15, 30, 60, 120, 240 and 360 minutes after the oral administration. The blood was centrifuged, and the plasma was used as the sample for measurement of the drug concentration in blood.
2) Measurement of the Drug Concentration
To 0.025 mL of the plasma obtained in 1) described above, 0.1 mL of an adequate internal standard material was added according to the usual method, and then deproteinization was performed by adding 0.875 mL of acetonitrile. After centrifugation, 0.005 mL of the supernatant was injected into LC-MS/MS. The drug concentration in plasma was measured by LC-MS/MS method under the conditions as follows. To 0.05 mL of the blank plasma were added the internal standard material and various test compounds adequately according to the usual method, similar operating described above was done, and then the standard curves were prepared.
In the oral administration, the maximum plasma drug concentration (Cmax) and the plasma drug concentration at 360 minutes after administration (C360) are shown in Tables 8 and 9, respectively.

IC50 (human GnRHR1) | C360 (plasma drug concentration at 360 minutes after administration) [1] | Cmax [1] | SMILES | availability by oral administration compared with Control compound 1 [1] | sustainability of blood concentration 6 hours after oral administration compared with Control compound [1]
133 nM | 2170 ng/mL | 14900 ng/mL | CN(Cc1c(F)cccc1F)c1ccc(F)c(-n2c(=O)[nH]c3csc(C(=O)O)c3c2=O)c1 [Example 2] | more excellent availability than the Control compound 1 | more superior in sustainability than the Control compound
51 nM | 1010 ng/mL | 17600 ng/mL | COCCOc1ccc(F)c(F)c1CN(C)c1ccc(F)c(-n2c(=O)[nH]c3csc(C(=O)O)c3c2=O)c1 [Example 1, 5-Carboxy-3-(2-fluoro-5-{N-[2,3-difluoro-6-(2-methoxyethoxy)benzyl]-N-methylamino}-phenyl)thieno[3,4-d]pyrimidine-2,4(1H,3H)-dione] | more excellent availability than the Control compound 1 | more superior in sustainability than the Control compound
